Structures are written as SMILES. pEC50: −log10 of the molar value.

What is called IC50 is the concentration that inhibits the measured activity by half. Low readings indicate higher potency, high ones lower potency.

In one assay the test system is HT-29. Description: Cytotoxic concentration required to inhibit 50% cell growth in HT-29 colon adenocarcinoma cell lines. The class given is functional. The following applies: Homo sapiens, read-out: ED50 (the source's name).
A further assay has as its system MLM. The assay can be described thus: Cytotoxic concentration required to inhibit 50% cell growth in MLM melanoma cell lines. Format: functional. The conditions noted are these: Homo sapiens, read-out: ED50 (the source's name).
The subject of the next assay is MCF7. Description: Cytotoxic concentration required to inhibit 50% cell growth in MCF-7 breast carcinoma cell lines. The following applies: Homo sapiens, read-out: ED50 (the source's name). Format: functional.
The subject of the next assay is SK-MEL-5. The assay can be described thus: Cytotoxic concentration required to inhibit 50% cell growth in SKMEL-5 melanoma cell lines. The class given is functional. The conditions noted are these: Homo sapiens, read-out: ED50 (the source's name).
A further assay relates to A549. The assay can be described thus: Cytotoxic concentration required to inhibit 50% cell growth in A-549 lung carcinoma cell lines. Format: functional. The conditions noted are these: Homo sapiens, read-out: ED50 (the source's name).
A further assay concerns the target Tubulin (Bos taurus, UniProt Q6B856+Q862L2+Q862F3). Description: Ability to inhibit Tubulin polymerization in Bovine brain. Format: functional, tissue-based.

On to `COc1ccc(CCc2cc(OC)c(OC)c(OC)c2)cc1O`, for which the pEC50 in the assay with HT-29 is 7.09; in the assay on MLM it was 8.00; with MCF7, 6.48; in the assay with SK-MEL-5 it was 8.68; in the assay with A549, 8.00. Besides, the 50% inhibitory concentration (IC50) at Tubulin is 3300 nM.

As to `COc1cc(/C=C\c2ccc(N(C)C)cc2)cc(OC)c1OC`, the pEC50 with HT-29 is 8.09; in the assay on MLM it was 8.03; in the assay with MCF7 it was 8.24; in the assay on SK-MEL-5, 9.82; with A549 it was 8.39. The compound also returned a concentration for half-maximal inhibition (IC50) at Tubulin of 3400 nM.

As for `COc1cc(CCc2ccc(N(C)C)cc2)cc(OC)c1OC`, the pEC50 with HT-29 is 7.11; in the assay on MLM, 6.92; with MCF7 it was 7.19; with SK-MEL-5 it was 7.23; in the assay with A549, 7.08. Also, on Tubulin, the IC50 turned out to be 29000 nM.

As for `COc1cccc(/C=C\c2cc(OC)c(OC)c(OC)c2)c1`, the pEC50 in the assay on HT-29 is 7.05; with MLM it was 5.85; with MCF7, 6.85; in the assay with SK-MEL-5, 7.22; in the assay on A549, 6.89. For the same compound, the IC50 on Tubulin was found to be 8800 nM.

Turning to `COc1cc(/C=C\c2ccc(Cl)cc2)cc(OC)c1OC`, the pEC50 in the assay on HT-29 is 7.30; in the assay with MLM, 6.77; in the assay with MCF7, 6.74; in the assay on SK-MEL-5, 8.00; with A549, 7.10. At Tubulin, this compound registered an IC50 of 4800 nM.

As for `COc1ccc(/C=C\c2cc(OC)c(OC)c(OC)c2)c(Cl)c1`, the pEC50 was 7.18 in the assay with HT-29; 6.85 in the assay with MLM; 7.34 in the assay on MCF7; 7.77 with SK-MEL-5; 7.29 in the assay with A549. In addition, the concentration for half-maximal inhibition (IC50) at Tubulin was found to be 3500 nM.

On to `COc1ccc(CCc2cc(OC)c(OC)c(OC)c2)cc1`, for which the pEC50 was 9.60 in the assay on HT-29; 9.74 in the assay on MLM; 9.80 in the assay on MCF7; 9.85 in the assay on SK-MEL-5; 9.74 in the assay on A549. The compound also yielded an IC50 on Tubulin of 7900 nM.

For `COc1cc(/C=C\c2ccc(Br)cc2)cc(OC)c1OC`, the pEC50 in the assay with HT-29 was 8.09; in the assay on MLM it was 7.85; with MCF7, 7.80; with SK-MEL-5 it was 8.17; with A549, 7.96. Further, on Tubulin, the half-inhibitory concentration (IC50) was found to be 3100 nM.

In the case of `COc1ccc(NCc2cc(OC)c(OC)c(OC)c2)cc1`, the pEC50 was 9.00 in the assay on HT-29; 8.80 in the assay with MLM; 8.62 in the assay on MCF7; 9.15 with SK-MEL-5; 8.72 in the assay with A549. The compound further registered an IC50 against Tubulin of 23000 nM.

For `COc1cc(/C=C\c2ccccc2)cc(OC)c1OC`, the pEC50 was 7.08 in the assay with HT-29; under 4.60 in the assay on MLM; 6.60 with MCF7; 6.92 in the assay with SK-MEL-5; 6.77 in the assay on A549. The same compound registered a concentration for half-maximal inhibition (IC50) against Tubulin of 36000 nM.

In the case of `COc1cc(/C=C\c2ccc(OC(C)=O)cc2)cc(OC)c1OC`, the pEC50 in the assay with HT-29 is 5.22; in the assay with MLM, 5.20; in the assay on MCF7, 5.52; in the assay with SK-MEL-5, 5.22; with A549, 5.77. For the same compound, at Tubulin, the half-inhibitory concentration (IC50) worked out at 29000 nM.

For `COc1ccc(NCc2cc(OC)cc(OC)c2)cc1`, the pEC50 with HT-29 is 4.75; with MLM, under 4.60; in the assay on MCF7 it was 5.22; in the assay with SK-MEL-5, 5.62; with A549, 5.24. The same compound registered an IC50 at Tubulin of 29000 nM.

On to `COc1ccc(CNc2cc(OC)c(OC)c(OC)c2)cc1`, for which the pEC50 in the assay with HT-29 was 5.65; with MLM, under 4.60; in the assay with MCF7, 6.07; in the assay with SK-MEL-5, 5.95; in the assay with A549 it was 6.08. For the same compound, the 50% inhibitory concentration (IC50) against Tubulin is over 50000 nM.

As to `COc1ccc(/C=C/c2cc(OC)c(OC)c(OC)c2)cc1`, the pEC50 was 5.74 in the assay with HT-29; 5.68 in the assay with MLM; 5.98 in the assay on MCF7; 6.09 in the assay on SK-MEL-5; 5.93 in the assay on A549. Besides, at Tubulin, the IC50 was over 50000 nM.

`COc1cc(/C=C/c2ccc(N(C)C)cc2)cc(OC)c1OC`: the pEC50 with HT-29 was 8.16; in the assay with MLM, 7.90; in the assay with MCF7, 7.09; in the assay on SK-MEL-5, 8.34; in the assay on A549, 8.21. Moreover, at Tubulin, the IC50 was over 50000 nM.

The values above are taken from ChEMBL document CHEMBL1125188, “Synthesis and evaluation of stilbene and dihydrostilbene derivatives as potential anticancer agents that inhibit tubulin polymerization” (J Med Chem, 1991).
